{
  "source": "patent US12433860B2",
  "about": "“Treatment of multiple sclerosis comprising DHODH inhibitors” (Immunic AG, priority 2021, dated 2025)",
  "key": {"[1]": {"system": "secretion of interleukin (IL)-17 and IFNγ", "details": "in vitro; cited from earlier work"}, "[2]": {"system": "patients with relapsing-remitting multiple sclerosis", "experiment": "EMPhASIS phase 2 trial Cohort 1: MRI lesions up to 24 weeks", "assay_type": "in vivo, human", "method": "Study design and participants: […] Eligible patients were randomly assigned in a 1:1:1 ratio by an interactive web response system to receive once-daily vidofludimus calcium (30 mg or 45 mg) or placebo over a 24 week period. Procedures: Participants took vidofludimus calcium (30 mg or 45 mg) or placebo once daily in the morning in a fasted state (before breakfast) for 24 weeks. To minimize the risk of changes to uric acid during the first seven days of dosing (induction phase), the assigned dose (containing vidofludimus calcium 15 mg, vidofludimus calcium 22.5 mg or placebo) was taken days 0-6 and then the full dose thereafter (maintenance phase). Participants underwent standardized brain MRI scans at baseline and every 6 weeks after the first day of dosing until week 24. MRI scans were centrally analyzed by a blinded and independent MRI center. […] In the case of suspected or protocol-defined confirmed relapse, corticosteroid treatment was provided at the discretion of the investigator. Pharmacokinetic and pharmacodynamic measurements were also collected. Outcomes: The primary endpoint was the difference in the cumulative number of combined unique active (CUA) lesions up to week 24 between vidofludimus calcium 45 mg and placebo in the intention-to-treat population (i.e., weeks 6 to 24). The key secondary was the same outcome between vidofludimus calcium 30 mg and placebo. A sensitivity analysis of the primary endpoint and key secondary endpoint was done in the per-protocol population and the modified intention-to-treat population. In addition, prespecified subgroup analyses of the primary endpoint and key secondary endpoint in the intention-to-treat population were done based on baseline demographics (gender, age, weight, country), MRI characteristics (gadolinium-enhancing lesions strata) and clinical characteristics (EDSS score, duration of disease and relapse history). […] Other secondary endpoints included: the difference in the cumulative number of combined unique active lesions up to week 24 between vidofludimus calcium 45 mg and vidofludimus calcium 30 mg; number or cumulative number of gadolinium-enhancing, T1, or T2 lesions up to 24 weeks; annualized relapse rate from baseline until week 24; proportion of relapse-free patients up to week 24; time-to-first relapse; change in EDSS score from baseline; proportion of patients with EDSS score progression; brain atrophy and other MRI endpoints; and safety and tolerability as assessed by the investigators. Annualized relapse rate was defined as the total number of confirmed relapses divided by the real exposure time in years assessed over the time during the double-blind treatment period. EDSS progression was defined as an increase compared to baseline of at least 1.0 point for patients with a baseline EDSS score of 1.0 to 4.0 or of at least 1.5 points for patients with a baseline EDSS score of 0. Vidofludimus calcium trough concentrations (weeks 6 and 24) were used to assess the correlation between pharmacokinetics and MRI-based assessments. The effects of vidofludimus calcium on serum neurofilament (baseline and week 24) were also analyzed. Statistical analysis: The primary and secondary efficacy endpoints were analyzed using a generalized linear model with a negative binomial distribution and a logarithmic link function. Independent effects included in the model were: treatment group; baseline volume of T2 lesions; MRI field strength; and baseline number of gadolinium-enhancing lesions. The natural log transformation of the time from the first dose to the date of the last MRI assessment was included as an offset term to account for different lengths of treatment."}, "[3]": {"system": "neurofilament light chain in serum", "experiment": "EMPhASIS: change in serum neurofilament light chain", "assay_type": "in vivo, human", "details": "for Median change in neurofilament light chain in serum from baseline to week 24: placebo 6.5%", "method": "Other secondary endpoints included: the difference in the cumulative number of combined unique active lesions up to week 24 between vidofludimus calcium 45 mg and vidofludimus calcium 30 mg; number or cumulative number of gadolinium-enhancing, T1, or T2 lesions up to 24 weeks; annualized relapse rate from baseline until week 24; proportion of relapse-free patients up to week 24; time-to-first relapse; change in EDSS score from baseline; proportion of patients with EDSS score progression; brain atrophy and other MRI endpoints; and safety and tolerability as assessed by the investigators. Annualized relapse rate was defined as the total number of confirmed relapses divided by the real exposure time in years assessed over the time during the double-blind treatment period. EDSS progression was defined as an increase compared to baseline of at least 1.0 point for patients with a baseline EDSS score of 1.0 to 4.0 or of at least 1.5 points for patients with a baseline EDSS score of 0. Vidofludimus calcium trough concentrations (weeks 6 and 24) were used to assess the correlation between pharmacokinetics and MRI-based assessments. The effects of vidofludimus calcium on serum neurofilament (baseline and week 24) were also analyzed.\nBased on pre-clinical and clinical studies and the single and multiple-dose Phase 1 studies with IMU-838, daily doses of IMU-838 of up to 50 mg once daily are considered safe. […] A post-hoc analysis from EMPhASIS study (see Example 1 and 2) in the non-relapse active subgroup of rrMS patients was conducted. […] Change in mean EDSS from baseline to Week 24 in a non-relapse active subgroup of rrMS patients (patients without relapse between baseline and Week 24)."}, "[4]": {"system": "experimental autoimmune encephalomyelitis", "details": "rodents; cited from earlier work"}, "[5]": {"system": "patients with RRMS and evidence of active disease", "experiment": "EMPhASIS Cohort 2 interim analysis: MRI lesions up to Week 12", "assay_type": "in vivo, human", "details": "for Cumulative number of New Gd+ lesions up to Week 12, Mean / Cumulative number of CUA MRI lesions up to Week 12, Mean / Patients without CUA MRI lesions over 12 weeks / Patients without New Gd+ lesions over 12 weeks: mFAS; for Cumulative number of New Gd+ lesions up to Week 12, Mean: placebo 3.5; for Cumulative number of CUA MRI lesions up to Week 12, Mean: placebo 4.4; for Patients without CUA MRI lesions over 12 weeks: placebo 41.4; for Patients without CUA MRI lesions over 12 weeks / Patients without New Gd+ lesions over 12 weeks: listed as IMU-838; for Patients without New Gd+ lesions over 12 weeks: placebo 49.3"}, "[6]": {"experiment": "Pre-clinical, clinical and single and multiple-dose Phase 1 studies: safe daily dose", "assay_type": "in vivo", "details": "once daily"}},
  "note": "Several values for one entry are separate records, joined by “and”; a condition that tells them apart may be missing. Equal entries are not always repeated. Structures can show the parent of a compound that is named as a salt.",
  "data": [
    {"smiles": "COc1cccc(-c2ccc(NC(=O)C3=C(C(=O)O)CCC3)c(F)c2)c1", "note": "[vidofludimus calcium, 1-cyclopentene-1-carboxylic acid, 2-(((3-fluoro-3′-methoxy(1,1′-biphenyl)-4-yl)amino)carbonyl)-, calcium salt (2:1)]", "values": [
      {"measurement": "secretion of interleukin (IL)-17 and IFNγ", "setting": "[1]", "result": "inhibited"},
      {"measurement": "suppression of MRI activity", "setting": "[2]; 30 mg dose, after 24-weeks of treatment, rrMS", "result": 70, "unit": "%"},
      {"measurement": "cumulative number of new gadolinium-enhancing lesions at week 24", "setting": "[2]; 30 mg once daily", "result": "4.5 (95% Cl 2.7-7.7)"},
      {"measurement": "Cumulative CUA lesions up to 24 weeks, adjusted mean (95% CI)", "setting": "[2]; 30 mg once daily, key secondary endpoint analysis (30 mg vs placebo), intention-to-treat", "result": "4.0 (2.2-7.2)"},
      {"measurement": "Cumulative CUA lesions up to 24 weeks, adjusted mean (95% CI)", "setting": "[2]; 30 mg once daily, secondary endpoint analysis (45 mg vs 30 mg), intention-to-treat", "result": "4.2 (2.5-7.1)"},
      {"measurement": "Rate ratio, cumulative CUA lesions up to 24 weeks", "setting": "[2]; 30 mg vs placebo, intention-to-treat", "result": 0.30},
      {"measurement": "cumulative number of new gadolinium-enhancing lesions at week 24", "setting": "[2]; 45 mg once daily", "result": "4.0 (95% Cl 2.1-7.8)"},
      {"measurement": "Cumulative CUA lesions up to 24 weeks, adjusted mean (95% CI)", "setting": "[2]; 45 mg once daily, primary endpoint analysis (45 mg vs placebo), intention-to-treat", "result": "2.4 (1.1-4.9)"},
      {"measurement": "Cumulative CUA lesions up to 24 weeks, adjusted mean (95% CI)", "setting": "[2]; 45 mg once daily, secondary endpoint analysis (45 mg vs 30 mg), intention-to-treat", "result": "4.4 (2.4-8.1)"},
      {"measurement": "Rate ratio, cumulative CUA lesions up to 24 weeks", "setting": "[2]; 45 mg vs placebo, intention-to-treat", "result": 0.38},
      {"measurement": "Rate ratio, cumulative CUA lesions up to 24 weeks", "setting": "[2]; secondary endpoint (45 mg vs 30 mg), printed in the 30 mg line", "result": 0.96},
      {"measurement": "Median change in neurofilament light chain in serum from baseline to week 24", "setting": "[3]; 30 mg once daily", "result": "−17.0", "unit": "%"},
      {"measurement": "decrease in serum neurofilament light chain (NfL), dose comparison", "setting": "[3]; 45 mg dose, FIG. 3A", "result": "greater decrease"},
      {"measurement": "Median change in neurofilament light chain in serum from baseline to week 24", "setting": "[3]; 45 mg once daily", "result": "−20.5", "unit": "%"},
      {"measurement": "activity in experimental autoimmune encephalomyelitis", "setting": "[4]", "result": "dose-dependent activity"},
      {"measurement": "suppression of Gd+ lesions at Week 12 compared with placebo", "setting": "[5]; 10 mg", "result": 40, "unit": "%"},
      {"measurement": "Cumulative number of New Gd+ lesions up to Week 12, Mean", "setting": "[5]; 10 mg (C2)", "result": 2.0},
      {"measurement": "suppression of CUA lesions at Week 12 compared with placebo", "setting": "[5]; 30 mg", "result": 68, "unit": "%"},
      {"measurement": "suppression of Gd+ lesions at Week 12 compared with placebo", "setting": "[5]; 30 mg", "result": 66, "unit": "%"},
      {"measurement": "Cumulative number of New Gd+ lesions up to Week 12, Mean", "setting": "[5]; 30 mg (C1)", "result": 1.2},
      {"measurement": "Cumulative number of CUA MRI lesions up to Week 12, Mean", "setting": "[5]; 30 mg (C1)", "result": 1.4},
      {"measurement": "Patients without CUA MRI lesions over 12 weeks", "setting": "[5]; 30 mg (C1)", "result": "62% and 61.5%"},
      {"measurement": "Patients without New Gd+ lesions over 12 weeks", "setting": "[5]; 30 mg (C1)", "result": "66% and 66.2%"},
      {"measurement": "suppression of CUA lesions at Week 12 compared with placebo", "setting": "[5]; 45 mg", "result": 75, "unit": "%"},
      {"measurement": "suppression of Gd+ lesions at Week 12 compared with placebo", "setting": "[5]; 45 mg", "result": 74, "unit": "%"},
      {"measurement": "Cumulative number of New Gd+ lesions up to Week 12, Mean", "setting": "[5]; 45 mg (C1)", "result": 0.9},
      {"measurement": "Cumulative number of CUA MRI lesions up to Week 12, Mean", "setting": "[5]; 45 mg (C1)", "result": 1.1},
      {"measurement": "Patients without CUA MRI lesions over 12 weeks", "setting": "[5]; 45 mg (C1)", "result": "55% and 54.5%"},
      {"measurement": "Patients without New Gd+ lesions over 12 weeks", "setting": "[5]; 45 mg (C1)", "result": "61% and 60.6%"},
      {"measurement": "daily dose considered safe", "setting": "[6]", "result": "up to 50 mg"}
    ]}
  ]
}
